Laboratory results published in patent US20250129021A1, “SMALL MOLECULE PROTEIN SYNTHESIS MODULATORS” (Interdict Bio, Inc., priority 2023, published 2025).

What was measured:
Format in all cases: biochemical
MYC = experiment: In vitro transcription-translation (IVTT) assay, MYC reporter; conditions: IVTT assay, HeLa S3 lysate, MYC reporter, normalized sfGFP/mCherry ratio; half-log dilutions 30 μM-0.1 μM, 2 hrs at 30° C.
Summary of the method: (§1)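 Reporter: mCherry, P2A, then 3×FLAG-target peptide-sfGFP fusion, IRES-initiated; HeLa S3 lysate IVTT; cpd dilutions 30 μM−0.1 μM half-log in 100% DMSO (dilution-plate conc); DNA added last; 2 h, 30° C; PBS quench.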

CCND1 = experiment: In vitro transcription-translation (IVTT) assay, CCND1 reporter; conditions: IVTT assay, HeLa S3 lysate, sfGFP/mCherry ratio
Summary of the method: as §1

NFKB1 = experiment: In vitro transcription-translation (IVTT) assay, NFKB1 reporter; conditions: HeLa S3 lysate, sfGFP/mCherry ratio
Procedure: In vitro transcription-translation assay setup: Each assay includes a master mix containing lysate and shared components, a 96-well plate containing compound titrations for testing, a 96-well DNA plate with reporter constructs to be tested, 96-well skirted PCR plates, and 96-well flat-bottom, black, fluorescent assay plates. Reaction materials setup: (A) Master mix—15 mL conical tube (3 mL of HeLa S3 Lysate described above; 0.6 mL of ThermoFisher Accessory Proteins (#88882); 1.2 ml of ThermoFisher Reaction Mix (#88882); 0.54 mL of nuclease-free Water); (B) 96-Well Master Mix+Compound Plate (Half-log dilutions (30 μM−0.1 μM) of 4 compounds of interest are prepared in 100% DMSO); 96-Well DNA Plate (Five DNA constructs are plated into single columns within the plate. Row 1 of the column contains nuclease free H2O, all other wells contain 110 ng/μL plasmid DNA). Reactions are started by mixing 155 μL of master mix and 3.5 μL of compound serial dilutions, then 9.1 μL of master mix+compound mixture is aliquoted across 5 96-well plates. Reactions begin with final addition of 2 μL of DNA for a 11.1 μL reaction volume in each well. The entire plate is sealed, and incubated for 2 hrs at 30° C. After 2 hrs, quench the assay using 45 μL of PBS, and transfer 50 μL to a flat-bottom black microplate Quantify the sfGFP and mCherry signals from each well on each plate, taking 3 reads of each plate, and perform data analysis below.
In vitro transcription-translation assay data analysis: Each plate is read three times in channels for both sfGFP and mCherry signals. The average signal across these 3 reads is then calculated for further analysis. Control wells containing no DNA reporter are subtracted from reporter wells in the same column to remove auto-fluorescence of the lysate. Then, the ratio of sfGFP/mCherry is calculated per well, and these ratios are averaged across the triplicate experiments on the same plate. Finally, the ratio of each titration concentration is normalized to the no drug control to create the normalized stalling metric. The error on this measurement is determined by propagating error through the averaging and normalization steps. Values are plotted and fit for IC50 determination for each test sequence and titration of compound.

Molecule	IC50 (MYC)	IC50 (CCND1)	IC50 (NFKB1)
C[C@H]1CC[C@@H](CCNC(=O)O[C@@H]2[C@@H](O)CN[C@@H]2Cc2ccc(-c3cnco3)cc2)N1 [V192850, (2R,3S,4S)-4-hydroxy-2-{[4-(1,3-oxazol-5-yl)phenyl]methyl}pyrrolidin-3-yl N-{2-[(2S,5S)-5-methylpyrrolidin-2-yl]ethyl}carbamate]	< 10 µM	< 10 µM	< 10 µM
O=C(NCCSC(F)(F)F)O[C@@H]1[C@@H](O)CN[C@@H]1Cc1ccc(-c2cnco2)cc1 [V192442, (2R,3S,4S)-4-hydroxy-2-{[4-(1,3-oxazol-5-yl)phenyl]methyl}pyrrolidin-3-yl N-{2-[(trifluoromethyl)sulfanyl]ethyl}carbamate]	< 10 µM	< 10 µM	< 10 µM
O=C(NCC[C@@H]1CCNCC1(F)F)O[C@@H]1[C@@H](O)CN[C@@H]1Cc1ccc(-c2cnco2)cc1 [V192234, (2R,3S,4S)-4-hydroxy-2-{[4-(1,3-oxazol-5-yl)phenyl]methyl}pyrrolidin-3-yl N-{2-[(4S)-3,3-difluoropiperidin-4-yl]ethyl}carbamate]	< 10 µM	< 10 µM	< 10 µM
O=C(NCc1cccc(OC(F)(F)F)c1)O[C@@H]1[C@@H](O)CN[C@@H]1Cc1ccc(-c2cnco2)cc1 [V192276, (2R,3S,4S)-4-hydroxy-2-{[4-(1,3-oxazol-5-yl)phenyl]methyl}pyrrolidin-3-yl N-{[3-(trifluoromethoxy)phenyl]methyl}carbamate]	< 10 µM	< 10 µM	< 10 µM
O=C(NCc1cccc(F)c1)O[C@@H]1[C@@H](O)CN[C@@H]1Cc1ccc(-c2cn3cc(C(F)(F)F)nc3s2)cc1 [V192874, (2R,3S,4S)-4-hydroxy-2-({4-[6-(trifluoromethyl)imidazo[2,1-b][1,3]thiazol-2-yl]phenyl}methyl)pyrrolidin-3-yl N-[(3-fluorophenyl)methyl]carbamate]	< 10 µM	< 10 µM	< 10 µM
O=C(NCCC12CC(CN1)C2)O[C@@H]1[C@@H](O)CN[C@@H]1Cc1ccc(-c2cnco2)cc1 [V192847, (2R,3S,4S)-4-hydroxy-2-{[4-(1,3-oxazol-5-yl)phenyl]methyl}pyrrolidin-3-yl N-(2-{2-azabicyclo[2.1.1]hexan-1-yl}ethyl)carbamate]	< 10 µM	< 10 µM	< 10 µM
O=C(NCc1cnsc1)O[C@@H]1[C@@H](O)CN[C@@H]1Cc1ccc(-c2cnco2)cc1 [V192110, (2R,3S,4S)-4-hydroxy-2-(4-(oxazol-5-yl)benzyl)pyrrolidin-3-yl (isothiazol-4-ylmethyl)carbamate]	< 10 µM	< 10 µM	< 10 µM
O=C(NCCc1cc(F)c(O)c(F)c1)O[C@@H]1[C@@H](O)CN[C@@H]1Cc1ccc(-c2cnco2)cc1 [V192432, (2R,3S,4S)-4-hydroxy-2-{[4-(1,3-oxazol-5-yl)phenyl]methyl}pyrrolidin-3-yl N-[2-(3,5-difluoro-4-hydroxyphenyl)ethyl]carbamate]	< 10 µM	< 10 µM	< 10 µM
O=C(NCc1cc(F)c(O)c(F)c1)O[C@@H]1[C@@H](O)CN[C@@H]1Cc1ccc(-c2cnco2)cc1 [V192433, (2R,3S,4S)-4-hydroxy-2-{[4-(1,3-oxazol-5-yl)phenyl]methyl}pyrrolidin-3-yl N-[(3,5-difluoro-4-hydroxyphenyl)methyl]carbamate]	< 10 µM	< 10 µM	< 10 µM
O=C(NCC[C@@H]1CCCN1)O[C@@H]1[C@@H](O)CN[C@@H]1Cc1ccc(-c2ccns2)cc1 [V192331, (2R,3S,4S)-4-hydroxy-2-{[4-(1,2-thiazol-5-yl)phenyl]methyl}pyrrolidin-3-yl N-{2-[(2S)-pyrrolidin-2-yl]ethyl}carbamate]	< 10 µM	< 10 µM	< 10 µM
O=C(NCc1cccc(F)c1)O[C@@H]1[C@@H](O)CN[C@@H]1Cc1ccc(-c2ccc3nonc3c2)cc1 [V192385, (2R,3S,4S)-2-{[4-(2,1,3-benzoxadiazol-5-yl)phenyl]methyl}-4-hydroxypyrrolidin-3-yl N-[(3-fluorophenyl)methyl]carbamate]	< 10 µM	< 10 µM	< 10 µM
CNC1(c2ccc(CNC(=O)O[C@@H]3[C@@H](O)CN[C@@H]3Cc3ccc(-c4cnco4)cc3)cc2)CC1 [V192288, (2R,3S,4S)-4-hydroxy-2-{[4-(1,3-oxazol-5-yl)phenyl]methyl}pyrrolidin-3-yl N-({4-[1-(methylamino)cyclopropyl]phenyl}methyl)carbamate]	< 10 µM	< 10 µM	< 10 µM
(2R,3S,4S)-2-{[2-fluoro-4-(1,3-oxazol-5-yl)phenyl]methyl}-4-hydroxypyrrolidin-3-ylN-[(3-fluorophenyl)methyl]carbamate [V192861]	< 10 µM	< 10 µM	< 10 µM
O=C(NCc1cccc(F)c1)O[C@@H]1[C@@H](O)CN[C@@H]1Cc1ccc(C(F)(F)F)cc1 [V192896, (2R,3S,4S)-4-hydroxy-2-{[4-(trifluoromethyl)phenyl]methyl}pyrrolidin-3-yl N-[(3-fluorophenyl)methyl]carbamate]	< 10 µM	< 10 µM	< 10 µM
O=C(NCc1cccc(F)c1)O[C@@H]1[C@@H](O)CN[C@@H]1Cc1ccc(Oc2cccnc2)cc1 [V192398, (2R,3S,4S)-4-hydroxy-2-{[4-(pyridin-3-yloxy)phenyl]methyl}pyrrolidin-3-yl N-[(3-fluorophenyl)methyl]carbamate]	< 10 µM	< 10 µM	< 10 µM
O=C(NCc1cccc(F)c1)O[C@@H]1[C@@H](O)CN[C@@H]1Cc1ccc(Oc2cncs2)cc1 [V192395, (2R,3S,4S)-4-hydroxy-2-{[4-(1,3-thiazol-5-yloxy)phenyl]methyl}pyrrolidin-3-yl N-[(3-fluorophenyl)methyl]carbamate]	< 10 µM	< 10 µM	< 10 µM
O=C(NCc1cccc(F)c1)O[C@@H]1[C@@H](O)CN[C@@H]1Cc1ccc(-c2cnc(C(F)F)s2)cc1 [V192310, (2R,3S,4S)-2-({4-[2-(difluoromethyl)-1,3-thiazol-5-yl]phenyl}methyl)-4-hydroxypyrrolidin-3-yl N-[(3-fluorophenyl)methyl]carbamate]	< 10 µM	10 to 20 µM	< 10 µM
O=C(NCC[C@@H]1CCCN1)O[C@@H]1[C@@H](O)CN[C@@H]1Cc1ccc([N+](=O)[O-])cc1 [V192359, (2R,3S,4S)-4-hydroxy-2-[(4-nitrophenyl)methyl]pyrrolidin-3-yl N-{2-[(2S)-pyrrolidin-2-yl]ethyl}carbamate]	< 10 µM	< 10 µM	< 10 µM
O=C(NCc1cncc(N2CCC2)c1)O[C@@H]1[C@@H](O)CN[C@@H]1Cc1ccc(-c2cnco2)cc1 [V192286, (2R,3S,4S)-4-hydroxy-2-{[4-(1,3-oxazol-5-yl)phenyl]methyl}pyrrolidin-3-yl N-{[5-(azetidin-1-yl)pyridin-3-yl]methyl}carbamate]	< 10 µM	< 10 µM	< 10 µM
O=C(NCC[C@@H]1CC(F)CN1)O[C@@H]1[C@@H](O)CN[C@@H]1Cc1ccc(-c2cnco2)cc1 (stereo partly drawn) [V192916, (2R,3S,4S)-4-hydroxy-2-{[4-(1,3-oxazol-5-yl)phenyl]methyl}pyrrolidin-3-yl N-{2-[(2R)-4-fluoropyrrolidin-2-yl]ethyl}carbamate]	< 10 µM	< 10 µM	< 10 µM
O=C(NCc1cccc(F)c1)O[C@@H]1[C@@H](O)CN[C@@H]1Cc1ccc(-c2nncs2)cc1 [V192411, (2R,3S,4S)-4-hydroxy-2-{[4-(1,3,4-thiadiazol-2-yl)phenyl]methyl}pyrrolidin-3-yl N-[(3-fluorophenyl)methyl]carbamate]	< 10 µM	< 10 µM	< 10 µM
O=C(NCCC(O)C(F)(F)F)O[C@@H]1[C@@H](O)CN[C@@H]1Cc1ccc(-c2cnco2)cc1 (stereo partly drawn) [V192868, (2R,3S,4S)-4-hydroxy-2-{[4-(1,3-oxazol-5-yl)phenyl]methyl}pyrrolidin-3-yl N-(4,4,4-trifluoro-3-hydroxybutyl)carbamate]	< 10 µM	< 10 µM	< 10 µM
(2R,3S,4S)-2-(2,1,3-benzoxadiazol-5-ylmethyl)-4-hydroxypyrrolidin-3-ylN-[(3-fluorophenyl)methyl]carbamate [V192383]	< 10 µM	< 10 µM	< 10 µM
